{
  "source": "PubChem BioAssay (NCI)",
  "assay_in_all_cases": "NCI tumour cell line growth inhibition, 48 h",
  "key": {"SF-539 CNS": {"system": "SF-539 CNS"}, "HCC-2998 colon": {"system": "HCC-2998 colon"}, "SW-620 colon": {"system": "SW-620 colon"}, "SF-295 CNS": {"system": "SF-295 CNS"}, "T-47D breast": {"system": "T-47D breast"}, "COLO 205 colon": {"system": "COLO 205 colon"}, "SNB-78 CNS": {"system": "SNB-78 CNS"}, "HOP-18 NSCLC": {"system": "HOP-18 NSCLC"}, "UO-31 renal": {"system": "UO-31 renal"}, "PC-3 prostate": {"system": "PC-3 prostate"}, "HS 578T breast": {"system": "HS 578T breast"}, "KM12 colon": {"system": "KM12 colon"}, "SNB-75 CNS": {"system": "SNB-75 CNS"}, "RXF 393 renal": {"system": "RXF 393 renal"}, "HOP-62 NSCLC": {"system": "HOP-62 NSCLC"}, "786-0 renal": {"system": "786-0 renal"}, "SK-MEL-2 melanoma": {"system": "SK-MEL-2 melanoma"}, "SNB-19 CNS": {"system": "SNB-19 CNS"}, "LOX IMVI melanoma": {"system": "LOX IMVI melanoma"}, "NCI/ADR-RES ovarian": {"system": "NCI/ADR-RES ovarian"}, "XF 498 CNS": {"system": "XF 498 CNS"}, "CAKI-1 renal": {"system": "CAKI-1 renal"}, "HOP-92 NSCLC": {"system": "HOP-92 NSCLC"}, "UACC-62 melanoma": {"system": "UACC-62 melanoma"}, "OVCAR-8 ovarian": {"system": "OVCAR-8 ovarian"}, "SK-MEL-28 melanoma": {"system": "SK-MEL-28 melanoma"}, "SN12C renal": {"system": "SN12C renal"}, "DMS 273 small cell lung": {"system": "DMS 273 small cell lung"}, "M19-MEL melanoma": {"system": "M19-MEL melanoma"}, "NCI-H226 lung": {"system": "NCI-H226 lung"}, "SK-MEL-5 melanoma": {"system": "SK-MEL-5 melanoma"}, "K-562 leukemia": {"system": "K-562 leukemia"}, "SK-OV-3 ovarian": {"system": "SK-OV-3 ovarian"}, "LXFL 529 NSCLC": {"system": "LXFL 529 NSCLC"}, "MALME-3M melanoma": {"system": "MALME-3M melanoma"}, "DU-145 prostate": {"system": "DU-145 prostate"}, "OVCAR-4 ovarian": {"system": "OVCAR-4 ovarian"}, "ACHN renal": {"system": "ACHN renal"}, "MOLT-4 leukemia": {"system": "MOLT-4 leukemia"}, "SF-268 CNS": {"system": "SF-268 CNS"}, "TK-10 renal": {"system": "TK-10 renal"}, "BT-549 breast": {"system": "BT-549 breast"}, "UACC-257 melanoma": {"system": "UACC-257 melanoma"}, "NCI-H460 lung": {"system": "NCI-H460 lung"}, "HCT-116 colon": {"system": "HCT-116 colon"}, "U251 CNS": {"system": "U251 CNS"}, "OVCAR-3 ovarian": {"system": "OVCAR-3 ovarian"}, "NCI-H23 lung": {"system": "NCI-H23 lung"}, "A498 renal": {"system": "A498 renal"}, "MDA-MB-435": {"system": "MDA-MB-435"}, "OVCAR-5 ovarian": {"system": "OVCAR-5 ovarian"}, "NCI-H522 lung": {"system": "NCI-H522 lung"}, "HL-60(TB) leukemia": {"system": "HL-60(TB) leukemia"}, "DLD-1 colon": {"system": "DLD-1 colon"}, "RXF-631 renal": {"system": "RXF-631 renal"}, "DMS 114 small cell lung": {"system": "DMS 114 small cell lung"}, "MCF7 breast": {"system": "MCF7 breast"}, "M14 melanoma": {"system": "M14 melanoma"}, "A549 NSCLC": {"system": "A549 NSCLC"}, "CCRF-CEM leukemia": {"system": "CCRF-CEM leukemia"}, "HCT-15 colon": {"system": "HCT-15 colon"}, "HT29 colon": {"system": "HT29 colon"}, "IGROV1 ovarian": {"system": "IGROV1 ovarian"}, "SR leukemia": {"system": "SR leukemia"}, "MDA-N": {"system": "MDA-N"}, "KM20L2 colon": {"system": "KM20L2 colon"}, "EKVX NSCLC": {"system": "EKVX NSCLC"}},
  "note": "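These data come from cells grown in 96-well plates and exposed to compound for 48 hours at five concentrations. The concentration for full growth arrest is given as TGI.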",
  "data": [
    {"compound": "CCN(CC)CCNc1ccc2ncn3c4ccc(OC)cc4c(=O)c1c23", "values": [
      {"measurement": "TGI", "setting": "SF-539 CNS", "result": 20, "unit": "µM"},
      {"measurement": "TGI", "setting": "HCC-2998 colon", "result": 13.7, "unit": "µM"},
      {"measurement": "TGI", "setting": "SW-620 colon", "result": 11.1, "unit": "µM"},
      {"measurement": "TGI", "setting": "SF-295 CNS", "result": 11.6, "unit": "µM"},
      {"measurement": "TGI", "setting": "T-47D breast", "result": 40.5, "unit": "µM"},
      {"measurement": "TGI", "setting": "COLO 205 colon", "result": 15.5, "unit": "µM"},
      {"measurement": "TGI", "setting": "SNB-78 CNS", "result": 30.9, "unit": "µM"},
      {"measurement": "TGI", "setting": "HOP-18 NSCLC", "result": 62, "unit": "µM"},
      {"measurement": "TGI", "setting": "UO-31 renal", "result": 11.8, "unit": "µM"},
      {"measurement": "TGI", "setting": "PC-3 prostate", "result": 18.8, "unit": "µM"},
      {"measurement": "TGI", "setting": "HS 578T breast", "result": 30.4, "unit": "µM"},
      {"measurement": "TGI", "setting": "KM12 colon", "result": 7.68, "unit": "µM"},
      {"measurement": "TGI", "setting": "SNB-75 CNS", "result": 20.8, "unit": "µM"},
      {"measurement": "TGI", "setting": "RXF 393 renal", "result": 7.69, "unit": "µM"},
      {"measurement": "TGI", "setting": "HOP-62 NSCLC", "result": 20.3, "unit": "µM"},
      {"measurement": "TGI", "setting": "786-0 renal", "result": 15.5, "unit": "µM"},
      {"measurement": "TGI", "setting": "SK-MEL-2 melanoma", "result": 25.4, "unit": "µM"},
      {"measurement": "TGI", "setting": "SNB-19 CNS", "result": 21.4, "unit": "µM"},
      {"measurement": "TGI", "setting": "LOX IMVI melanoma", "result": 4.68, "unit": "µM"},
      {"measurement": "TGI", "setting": "NCI/ADR-RES ovarian", "result": 16.1, "unit": "µM"},
      {"measurement": "TGI", "setting": "XF 498 CNS", "result": 25.1, "unit": "µM"},
      {"measurement": "TGI", "setting": "CAKI-1 renal", "result": 21, "unit": "µM"},
      {"measurement": "TGI", "setting": "HOP-92 NSCLC", "result": 23, "unit": "µM"},
      {"measurement": "TGI", "setting": "UACC-62 melanoma", "result": 33.9, "unit": "µM"},
      {"measurement": "TGI", "setting": "OVCAR-8 ovarian", "result": 11.8, "unit": "µM"},
      {"measurement": "TGI", "setting": "SK-MEL-28 melanoma", "result": 28.4, "unit": "µM"},
      {"measurement": "TGI", "setting": "SN12C renal", "result": 18.3, "unit": "µM"},
      {"measurement": "TGI", "setting": "DMS 273 small cell lung", "result": 14.9, "unit": "µM"},
      {"measurement": "TGI", "setting": "M19-MEL melanoma", "result": 20.4, "unit": "µM"},
      {"measurement": "TGI", "setting": "NCI-H226 lung", "result": 13.7, "unit": "µM"},
      {"measurement": "TGI", "setting": "SK-MEL-5 melanoma", "result": 20, "unit": "µM"},
      {"measurement": "TGI", "setting": "K-562 leukemia", "result": 22.7, "unit": "µM"},
      {"measurement": "TGI", "setting": "SK-OV-3 ovarian", "result": 23.8, "unit": "µM"},
      {"measurement": "TGI", "setting": "LXFL 529 NSCLC", "result": 20, "unit": "µM"},
      {"measurement": "TGI", "setting": "MALME-3M melanoma", "result": 25.1, "unit": "µM"},
      {"measurement": "TGI", "setting": "DU-145 prostate", "result": 20.7, "unit": "µM"},
      {"measurement": "TGI", "setting": "OVCAR-4 ovarian", "result": 8.89, "unit": "µM"},
      {"measurement": "TGI", "setting": "ACHN renal", "result": 19, "unit": "µM"},
      {"measurement": "TGI", "setting": "MOLT-4 leukemia", "result": 11, "unit": "µM"},
      {"measurement": "TGI", "setting": "SF-268 CNS", "result": 14.4, "unit": "µM"},
      {"measurement": "TGI", "setting": "TK-10 renal", "result": 29.2, "unit": "µM"},
      {"measurement": "TGI", "setting": "BT-549 breast", "result": 33, "unit": "µM"},
      {"measurement": "TGI", "setting": "UACC-257 melanoma", "result": 28.3, "unit": "µM"},
      {"measurement": "TGI", "setting": "NCI-H460 lung", "result": 5.52, "unit": "µM"},
      {"measurement": "TGI", "setting": "HCT-116 colon", "result": 13.5, "unit": "µM"},
      {"measurement": "TGI", "setting": "U251 CNS", "result": 5.31, "unit": "µM"},
      {"measurement": "TGI", "setting": "OVCAR-3 ovarian", "result": 24.2, "unit": "µM"},
      {"measurement": "TGI", "setting": "NCI-H23 lung", "result": 18.1, "unit": "µM"},
      {"measurement": "TGI", "setting": "A498 renal", "result": 21.5, "unit": "µM"},
      {"measurement": "TGI", "setting": "MDA-MB-435", "result": 18.6, "unit": "µM"},
      {"measurement": "TGI", "setting": "OVCAR-5 ovarian", "result": 24, "unit": "µM"},
      {"measurement": "TGI", "setting": "NCI-H522 lung", "result": 21.4, "unit": "µM"},
      {"measurement": "TGI", "setting": "HL-60(TB) leukemia", "result": 18.7, "unit": "µM"},
      {"measurement": "TGI", "setting": "DLD-1 colon", "result": 20, "unit": "µM"},
      {"measurement": "TGI", "setting": "RXF-631 renal", "result": 15.8, "unit": "µM"},
      {"measurement": "TGI", "setting": "DMS 114 small cell lung", "result": 25.2, "unit": "µM"},
      {"measurement": "TGI", "setting": "MCF7 breast", "result": "> 100", "unit": "µM"},
      {"measurement": "TGI", "setting": "M14 melanoma", "result": 11.7, "unit": "µM"},
      {"measurement": "TGI", "setting": "A549 NSCLC", "result": 9.71, "unit": "µM"},
      {"measurement": "TGI", "setting": "CCRF-CEM leukemia", "result": 19, "unit": "µM"},
      {"measurement": "TGI", "setting": "HCT-15 colon", "result": 15.1, "unit": "µM"},
      {"measurement": "TGI", "setting": "HT29 colon", "result": 8.14, "unit": "µM"},
      {"measurement": "TGI", "setting": "IGROV1 ovarian", "result": 28.1, "unit": "µM"},
      {"measurement": "TGI", "setting": "SR leukemia", "result": "> 22.7", "unit": "µM"},
      {"measurement": "TGI", "setting": "MDA-N", "result": 19.6, "unit": "µM"},
      {"measurement": "TGI", "setting": "KM20L2 colon", "result": 8.76, "unit": "µM"},
      {"measurement": "TGI", "setting": "EKVX NSCLC", "result": 29.2, "unit": "µM"}
    ]}
  ]
}
